Data reported in patent publication US10246411B2, “(Z)-3,4,5-trimethoxystyrylbenzenesulfonamides as potential anticancer agents” (COUNCIL OF SCIENTIFIC & INDUSTRIAL RESEARCH, priority 2014, dated 2019).

Assays:
SR = assay: In vitro cytotoxicity (NCI protocol, SRB), SR; details: Homo sapiens, 48 h
M14 = assay: In vitro cytotoxicity (NCI protocol, SRB), M14; details: Homo sapiens, M14, 48 h
KM12 = assay: In vitro cytotoxicity (NCI protocol, SRB), KM12; details: Homo sapiens, KM12, 48 h
MCF7 = assay: In vitro cytotoxicity (NCI protocol, SRB), MCF7; details: Homo sapiens, MCF7, 48 h
HOP92 = assay: In vitro cytotoxicity (NCI protocol, SRB), HOP92; details: Homo sapiens, HOP-92, 48 h
TK-10 = assay: In vitro cytotoxicity (NCI protocol, SRB), TK-10; details: Homo sapiens, TK-10, 48 h
HOP-62 = assay: In vitro cytotoxicity (NCI protocol, SRB), HOP-62; details: Homo sapiens, HOP-62, 48 h
HCT-15 = assay: In vitro cytotoxicity (NCI protocol, SRB), HCT-15; details: Homo sapiens, HCT-15, 48 h
SW-620 = assay: In vitro cytotoxicity (NCI protocol, SRB), SW-620; details: Homo sapiens, SW-620, 48 h
SF-268 = assay: In vitro cytotoxicity (NCI protocol, SRB), SF-268; details: Homo sapiens, SF-268, 48 h
SF-295 = assay: In vitro cytotoxicity (NCI protocol, SRB), SF-295; details: Homo sapiens, SF-295, 48 h
SF-539 = assay: In vitro cytotoxicity (NCI protocol, SRB), SF-539; details: Homo sapiens, 48 h
IGROV1 = assay: In vitro cytotoxicity (NCI protocol, SRB), IGROV1; details: Homo sapiens, IGROV-1, 48 h
CAKI-1 = assay: In vitro cytotoxicity (NCI protocol, SRB), CAKI-1; details: Homo sapiens, CAKI-1, 48 h
SNB -19 = assay: In vitro cytotoxicity (NCI protocol, SRB), SNB -19; details: Homo sapiens, SNB-19, 48 h
UACC-62 = assay: In vitro cytotoxicity (NCI protocol, SRB), UACC-62; details: Homo sapiens, UACC-62, 48 h
OVCAR-3 = assay: In vitro cytotoxicity (NCI protocol, SRB), OVCAR-3; details: Homo sapiens, OVCAR-3, 48 h
OVCAR-8 = assay: In vitro cytotoxicity (NCI protocol, SRB), OVCAR-8; details: Homo sapiens, OVCAR-8, 48 h
SK-OV-3 = assay: In vitro cytotoxicity (NCI protocol, SRB), SK-OV-3; details: Homo sapiens, SK-OV-3, 48 h
RXF 393 = assay: In vitro cytotoxicity (NCI protocol, SRB), RXF 393; details: Homo sapiens, RXF 393, 48 h
HS 578T = assay: In vitro cytotoxicity (NCI protocol, SRB), HS 578T; details: Homo sapiens, 48 h
NCI-H226 = assay: In vitro cytotoxicity (NCI protocol, SRB), NCI-H226; details: Homo sapiens, NCI-H226, 48 h
NCIH322M = assay: In vitro cytotoxicity (NCI protocol, SRB), NCIH322M; details: Homo sapiens, NCI-H322M, 48 h
NCI-H460 = assay: In vitro cytotoxicity (NCI protocol, SRB), NCI-H460; details: Homo sapiens, NCI-H460, 48 h
HCC-2998 = assay: In vitro cytotoxicity (NCI protocol, SRB), HCC-2998; details: Homo sapiens, HCC 2998, 48 h
MALME-3M = assay: In vitro cytotoxicity (NCI protocol, SRB), MALME-3M; details: Homo sapiens, 48 h
SK-MEL-2 = assay: In vitro cytotoxicity (NCI protocol, SRB), SK-MEL-2; details: Homo sapiens, SK-MEL-2, 48 h
SK-MEL-5 = assay: In vitro cytotoxicity (NCI protocol, SRB), SK-MEL-5; details: Homo sapiens, SK-MEL-5, 48 h
UACC-257 = assay: In vitro cytotoxicity (NCI protocol, SRB), UACC-257; details: Homo sapiens, UACC-257, 48 h
RPMI-8226 = assay: In vitro cytotoxicity (NCI protocol, SRB), RPMI-8226; details: Homo sapiens, RPMI-8226, 48 h
MDA-MB-435 [1] = assay: In vitro cytotoxicity (NCI protocol, SRB), MDA-MB-435 (melanoma panel); details: Homo sapiens, MDA-MB-435, 48 h, Melanoma MDA-MB-435, 48 h exposure
MDA-MB-435 [2] = assay: In vitro cytotoxicity (NCI protocol, SRB), MDA-MB-435 (breast panel line); details: Homo sapiens, MDA-MB-435, 48 h

**Q.** What does the source list for `COc1ccc(S(=O)(=O)Nc2cc(/C=C\c3cc(OC)c(OC)c(OC)c3)cc(OC)c2OC)cc1` [13a, (Z)—N-(2,3-dimethoxy-5-(3,4,5-trimethoxystyryl)phenyl)-4-methoxybenzenesulfonamide]?
**A.** GI50 (SR): 35.2 nM; GI50 (M14): 30.1 nM; GI50 (KM12): 39.7 nM; GI50 (MCF7): 36 nM; GI50 (HOP92): 1750 nM; GI50 (TK-10): 65 nM; GI50 (HOP-62): 40.5 nM; GI50 (HCT-15): 35.8 nM; GI50 (SW-620): 43.9 nM; GI50 (SF-268): 57.5 nM; GI50 (SF-295): 31.1 nM; GI50 (SF-539): 25.3 nM; GI50 (IGROV1): 57.7 nM; GI50 (CAKI-1): 53.1 nM; GI50 (SNB -19): 60.1 nM; GI50 (UACC-62): 46.1 nM; GI50 (OVCAR-3): 34.5 nM; GI50 (OVCAR-8): 45.9 nM; GI50 (SK-OV-3): 37.8 nM; GI50 (RXF 393): 40.1 nM; GI50 (HS 578T): 45.2 nM; GI50 (NCI-H226): 27300 nM; GI50 (NCIH322M): 55.3 nM; GI50 (NCI-H460): 36.7 nM; GI50 (HCC-2998): 39.1 nM; GI50 (MALME-3M): 12600 nM; GI50 (SK-MEL-2): 37.4 nM; GI50 (SK-MEL-5): 35.9 nM; GI50 (UACC-257): 4100 nM; GI50 (RPMI-8226): 45.9 nM; GI50 (MDA-MB-435 [1]): 21.1 nM; GI50 (MDA-MB-435 [2]): 42 nM
